According to patent US20150219624A1, “METHODS FOR IDENTIFYING ANTI-CANCER COMPOUNDS” (MEMORIAL SLOAN KETTERING CANCER CENTER, priority 2013, published 2015):
Where “and” joins values, the source holds several entries; their conditions need not be identical. Identical values can stand only once.

Assay: In vivo toxicity studies (body and organ weights, hematology, clinical chemistry, histopathology)
Settings: for CHOL, % ChVh / Ca, % ChVh / Cl, % ChVh / GLUC, % ChVh / K, % ChVh / Na, % ChVh / Na/K, % ChVh / P, % ChVh / CHOL, Mean / Ca, Mean / Cl, Mean / GLUC, Mean / K, Mean / Na, Mean / P, Mean: 0.2 mg/kg Female
Experimental: Toxicity studies. Eight week-old C57Bl/6NTac female mice were randomly assigned to either control or treatment groups. Each treatment group received one daily dose of test article through i.p. injection over 5 consecutive days. Toxicity was monitored by weight loss and daily clinical observation for the 14 days following test article administration. 24 hours after the last test article administration 4 mice in each group were sacrificed and clinical chemistry, hematology and tissue specific histopathology were done at autopsy. The remaining mice (n=2 per group) were kept under observation for an additional 13 days; at that point all mice were sacrificed and clinical chemistry, hematology and tissue specific histopathology were done at time of autopsy.
D) KOPT-K1 xenograft studies.

[1] = 0.2 mg/kg, female, Day 5, % change of mean vs vehicle
[2] = 0.2 mg/kg, female, Day 5, fold change of mean vs vehicle
[3] = 0.2 mg/kg, female, Day 5, group mean
[4] = 0.2 mg/kg, female, Day 5, individual animals

(±)-CR-31-B
CHOL, % ChVh (Day 5, change vs vehicle): 0.0% | Ca, % ChVh (Day 5, change vs vehicle): 2.2% | Cl, % ChVh (Day 5, change vs vehicle): 0.6% | GLUC, % ChVh (Day 5, change vs vehicle): 1.8% | K, % ChVh (Day 5, change vs vehicle): −4.5% | Na, % ChVh (Day 5, change vs vehicle): −0.2% | Na/K, % ChVh (Day 5, change vs vehicle): 1.4% | P, % ChVh (Day 5, change vs vehicle): −14.6% | CHOL, Mean (Day 5, group mean, N 4): 66.0 mg/dL | Ca, Mean (Day 5, group mean, N 4): 9.1 mg/dL | Cl, Mean (Day 5, group mean, N 4): 114.0 mEq/L | GLUC, Mean (Day 5, group mean, N 4): 297.3 mg/dL | K, Mean (Day 5, group mean, N 4): 4.2 mEq/L | Na, Mean (Day 5, group mean, N 4): 149.0 mEq/L | P, Mean (Day 5, group mean, N 4): 7.0 mg/dL | CHOL, % ChVh (Day 19, change vs vehicle): −2.3% | Ca, % ChVh (Day 19, change vs vehicle): −3.2% | Cl, % ChVh (Day 19, change vs vehicle): −1.3% | GLUC, % ChVh (Day 19, change vs vehicle): −7.9% | K, % ChVh (Day 19, change vs vehicle): −9.5% | Na, % ChVh (Day 19, change vs vehicle): 0.0% | Na/K, % ChVh (Day 19, change vs vehicle): 12.9% | P, % ChVh (Day 19, change vs vehicle): 50.0% | CHOL, Mean (Day 19, group mean, N 2): 65.0 mg/dL | Ca, Mean (Day 19, group mean, N 2): 9.2 mg/dL | Cl, Mean (Day 19, group mean, N 2): 114.5 mEq/L | GLUC, Mean (Day 19, group mean, N 2): 240.5 mg/dL | K, Mean (Day 19, group mean, N 2): 3.8 mEq/L | Na, Mean (Day 19, group mean, N 2): 148.0 mEq/L | P, Mean (Day 19, group mean, N 2): 10.2 mg/dL | ALB % ChVh [1]: 3.3% | BASO % % ChVh [1]: −72.7% | BASO (K/uL) % ChVh [1]: −100.0% | BUN % ChVh [1]: 3.0% | Body Weight % ChVh [1]: −3.8% | CRTN % ChVh [1]: 11.1% | EOS % % ChVh [1]: −70.0% | EOS (K/uL) % ChVh [1]: 0.0% | GLOB % ChVh [1]: 5.9% | HCT % % ChVh [1]: 3.4% | HGB % ChVh [1]: 4.4% | LYM % % ChVh [1]: −14.6% | LYM (K/uL) % ChVh [1]: −21.2% | Left Kidney (% body wt) % ChVh [1]: −10.5% | Left Kidney (gm) % ChVh [1]: −12.5% | Liver (% body wt) % ChVh [1]: 2.1% | Liver (gm) % ChVh [1]: −1.6% | MCH % ChVh [1]: 2.5% | MCHC % ChVh [1]: 0.9% | MCV % ChVh [1]: 1.4% | MONO % % ChVh [1]: 21.2% | MONO (K/uL) % ChVh [1]: 8.3% | MPV % ChVh [1]: −5.6% | NEUT % % ChVh [1]: 97.8% | NEUT (K/uL) % ChVh [1]: 87.2% | PLT % ChVh [1]: −29.0% | RBC % ChVh [1]: 1.9% | RDW % % ChVh [1]: −0.6% | Right Kidney (% body wt) % ChVh [1]: −11.6% | Right Kidney (gm) % ChVh [1]: −15.4% | Spleen (% body wt) % ChVh [1]: 17.6% | Spleen (gm) % ChVh [1]: 13.6% | TBIL % ChVh [1]: 0.0% | TP % ChVh [1]: 4.3% | WBC % ChVh [1]: −7.7% | ALP FoldChVh [2]: 1.0 | ALT FoldChVh [2]: 1.3 | AST FoldChVh [2]: 1.2 | ALB [3]: 3.1 g/dL | ALP [3]: 124.3 U/L | ALT [3]: 25.0 U/L | AST [3]: 41.3 U/L | BASO [3]: 0.00 K/uL | BASO % [3]: 0.03% | BUN [3]: 27.3 mg/d L | Body Weight [3]: 16.680 gm | CRTN [3]: 0.20 mg/dL | EOS [3]: 0.01 K/uL | EOS % [3]: 0.06% | GGT [3]: 0.0 U/L | GLOB [3]: 1.8 g/dL | HCT % [3]: 45.6% | HGB [3]: 13.7 g/dL | LYM [3]: 4.31 K/uL | LYM % [3]: 72.97% | MCH [3]: 15.3 pg | MCHC [3]: 30.0 g/dL | MCV [3]: 50.9 fL | MONO [3]: 0.13 K/uL | MONO % [3]: 2.17% | MPV [3]: 4.3 fL | NEUT [3]: 1.46 K/uL | NEUT % [3]: 24.77% | PLT [3]: 725.8 K/uL | RBC [3]: 8.96 M/uL | RDW % [3]: 15.8% | TBIL [3]: 0.18 mg/d L | TP [3]: 4.9 g/dL | WBC [3]: 5.91 K/uL | ALB [4]: 3.3 g/dL and 3.0 g/dL and 2.9 g/dL and 3.1 g/dL | ALP [4]: 116 U/L and 114 U/L and 123 U/L and 144 U/L | ALT [4]: 26 U/L and 20 U/L (2×) and 34 U/L | AST [4]: 51 U/L and 35 U/L (2×) and 44 U/L | BASO [4]: 0.00 K/uL | BASO % [4]: 0.07% and 0.04% and 0.00% (2×) | BUN [4]: 27 mg/d L (2×) and 26 mg/d L and 29 mg/d L | Body Weight [4]: 15.962 gm and 17.217 gm and 17.463 gm and 16.078 gm | CHOL [4]: 68 mg/dL and 66 mg/dL (2×) and 64 mg/dL | CRTN [4]: 0.2 mg/dL | Ca [4]: 8.9 mg/dL and 9.0 mg/dL and 9.3 mg/dL (2×) | Cl [4]: 116 mEq/L and 113 mEq/L (2×) and 114 mEq/L | EOS [4]: 0.00 K/uL (2×) and 0.01 K/uL (2×) | EOS % [4]: 0.01% and 0.14% and 0.00% and 0.10% | GGT [4]: 0 U/L | GLOB [4]: 1.8 g/dL (3×) and 1.9 g/dL | GLUC [4]: 270 mg/dL and 335 mg/dL and 261 mg/dL and 323 mg/dL | HCT % [4]: 48.3% and 45.1% and 43.9% and 45.0% | HGB [4]: 14.3 g/dL and 13.8 g/dL and 13.0 g/dL and 13.5 g/dL | K [4]: 4.6 mEq/L and 4.0 mEq/L and 4.4 mEq/L and 3.9 mEq/L | LYM [4]: 3.64 K/uL and 4.96 K/uL and 3.49 K/uL and 5.13 K/uL | LYM % [4]: 76.21% and 71.86% and 70.06% and 73.76% | Left Kidney [4]: 0.108 gm and 0.133 gm and 0.138 gm and 0.125 gm and 0.75 % body wt and 0.77 % body wt and 0.79 % body wt and 0.78 % body wt | Liver [4]: 0.807 gm and 0.969 gm and 0.914 gm and 0.843 gm and 5.06 % body wt and 5.63 % body wt and 5.23 % body wt and 5.24 % body wt | MCH [4]: 15.4 Pg (2×) and 15.0 Pg and 15.2 Pg | MCHC [4]: 29.6 g/dL (2×) and 30.6 g/dL and 30.0 g/dL | MCV [4]: 51.9 fL and 50.4 fL and 50.5 fL and 50.6 fL | MONO [4]: 0.08 K/uL and 0.24 K/uL and 0.09 K/uL and 0.12 K/uL | MONO % [4]: 1.77% and 3.45% and 1.74% and 1.70% | MPV [4]: 4.3 fL (3×) and 4.1 fL
